In ChEMBL document CHEMBL1137956, “Different hydroxyl radical scavenging activity of water-soluble beta-alanine C60 adducts” (Bioorg Med Chem Lett, 2004):

Species on record: Mus musculus
Experiment: Hydroxyl radical scavenging activity by chemiluminescence technique in mouse thymus cells
Assay type: functional
Details: not given

IC50 [uM l-1] | Structure (SMILES)
147.2 | O=C([O-])CCNC12c3c4c5c6c7c8c(c9c%10c1c1c3c3c%11c4c4c5c5c7c7c%12c8c8c9c9c%10c%10c1c1c3c3c%11c%11c4c4c5c7c5c7c%12c8c8c9c9c%10c1c1c3c3c%11c4c5c4c7c8c9c1c34)C62.[Na+] (stereo unspecified)
16600 | O=C(O)c1ccccc1 [BENZOIC ACID]
13800 | OC[C@@H](O)[C@@H](O)[C@H](O)[C@H](O)CO [MANNITOL]

Structure (SMILES) | IC50 [uM l-1]
NC(N)=S [THIOUREA] | 1200

Same assay, conditions: Mus musculus; read-out: IC50

IC50 [µM] | Structure (SMILES)
76.3 | CN(CCC(=O)O)C12C3=c4c5c6c7c8c9c%10c%11c%12c%13c%14c%15c%16c%17c%18c%19c%20c(c4c4c5c8c(c%139)c(c%14%18)c%194)C4(NCCC(=O)O)C5=c8c9c(c-%16c%13c%14c%16c(c-%11c%11c%18c(c%19c1c(c8c(c9%14)c%19c%18%16)C34)=C(C62)C7(NCCC(=O)O)C%11%10)C%13C%12%15NCCC(=O)O)C%17C5%20NCCC(=O)O (stereo unspecified)
96.2 | CN(CCC(=O)O)C12C3=C4c5c6c7c8c9c%10c%11c%12c%13c%14c%15c%16c%17c%18c(c5c8c(c%15%18)c%139)C4(NCCC(=O)O)C4C=%17C5(NCCC(=O)O)C(=C8c9c1c1c%13c%15c%17c%18c%19c%20c%21c(c8c%19c9%15)C5C=%16C%21(NCCC(=O)O)C%14C%12(NCCC(=O)O)C%20C%18(NCCC(=O)O)C%11C5(NCCC(=O)O)C%17C%13=C(C6(NCCC(=O)O)C31)C7(NCCC(=O)O)C%105)C42 (stereo unspecified)
